Patent US20170305922A1, “CARM1 INHIBITORS AND USES THEREOF” (Epizyme, Inc., priority 2014, published 2017)

These compounds were tested against T1, Human CARM1 (PRMT4) (Homo sapiens, UniProt Q86X55) (assay: CARM1 enzyme assay on peptide substrates (3H-SAM Flashplate)). Settings: Biochemical assay; CARM1 0.25 nM, 3H-SAM 30 nM, peptide 250 nM; read-out: Biochem IC50.
T1 construct: Flag-CARM1-His was eluted with 200 ug/ml FLAG peptide in buffer A; made in house; host or cells: HEK 293F cells infected with recombinant baculovirus (pFastBacMam)
T1 sequence (Q86X55 1-585 isoform Q86X55-1): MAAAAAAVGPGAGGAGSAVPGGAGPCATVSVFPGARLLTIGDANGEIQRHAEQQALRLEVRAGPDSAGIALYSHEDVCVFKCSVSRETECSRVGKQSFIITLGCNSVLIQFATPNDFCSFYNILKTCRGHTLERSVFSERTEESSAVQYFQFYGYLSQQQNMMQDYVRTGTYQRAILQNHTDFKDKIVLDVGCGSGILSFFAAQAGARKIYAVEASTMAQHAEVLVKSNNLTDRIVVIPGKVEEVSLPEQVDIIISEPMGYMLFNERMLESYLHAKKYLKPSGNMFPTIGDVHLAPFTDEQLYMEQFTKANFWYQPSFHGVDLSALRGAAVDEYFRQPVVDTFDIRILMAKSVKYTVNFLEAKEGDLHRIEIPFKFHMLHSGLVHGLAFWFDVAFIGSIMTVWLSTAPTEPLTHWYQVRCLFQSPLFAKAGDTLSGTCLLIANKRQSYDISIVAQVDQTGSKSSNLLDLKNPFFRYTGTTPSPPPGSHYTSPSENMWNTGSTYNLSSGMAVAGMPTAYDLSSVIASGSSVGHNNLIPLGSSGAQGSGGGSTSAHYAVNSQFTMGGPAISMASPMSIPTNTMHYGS

IC50 [nM] | SMILES
3.11 | CNC[C@@H](O)COc1ccc(Cl)c(-c2nc(-c3c(C)c(Br)nn3C)c(C)c(N3CC4(CN(CCC#N)C4)C3)n2)c1 [Example 298]
2.94 | CNC[C@@H](O)COc1ccc(Cl)c(-c2nc(-c3c(Cl)cnn3C)c(C)c(N3Cc4cnc(N5CC(OC)C5)nc4C3)n2)c1 [Example 299]
7.99 | CNC[C@@H](O)COc1ccc(Cl)c(-c2nc(-c3c(C)noc3C)c(C)c(N3CC4(CCCN(CC(F)(F)F)C4)C3)n2)c1 [Example 301]
5.18 | CNC[C@@H](O)COc1ccc(Cl)c(-c2nc(-c3c(C)noc3C)c(C)c(N3CC4(CCCN(C(=O)OCC(F)F)C4)C3)n2)c1 [Example 302]
5.91 | CNC[C@@H](O)COc1ccc(Cl)c(-c2nc(-c3c(C)c(Br)nn3C)c(C)c(N3CC4(CC(OCC(F)F)C4)C3)n2)c1 [Example 303]
6.81 | CNC[C@@H](O)COc1ccc(Cl)c(-c2nc(-c3c(C)c(Br)nn3C)c(C)c(N3CC(CCl)(CNCC(F)(F)F)C3)n2)c1 [Example 304]
8.35 | CNC[C@@H](O)COc1ccc(Cl)c(-c2nc(-c3c(C)c(Br)nn3C)c(C)c(N3CC4(CN(CC(F)(F)F)C4)C3)n2)c1 [Example 305]
6.52 | CNC[C@@H](O)COc1ccc(Cl)c(-c2nc(-c3c(C)noc3C)c(C)c(N3CC4(CC(C#N)C4)C3)n2)c1 [Example 306]
3.86 | CCOc1ncc2c(n1)CN(c1nc(-c3cc(OC[C@H](O)CNC)ccc3Cl)nc(-c3c(Cl)cnn3C)c1C)C2 [Example 307]
120 | Cc1noc(C)c1-c1nc(-c2cc(OC[C@H](O)CN(C)C=O)ccc2Cl)nc(N2Cc3cccnc3C2)c1C [Example 308]
4.83 | CNC[C@@H](O)COc1ccc(Cl)c(-c2nc(-c3c(C)noc3C)c(C)c(N3CC4(C3)CN([C@H](C)C(F)(F)F)C4)n2)c1 [Example 330]
6.31 | CNC[C@@H](O)COc1ccc(Cl)c(-c2nc(-c3c(C)noc3C)c(C)c(N3CC4(C3)CN([C@@H](C)C(F)(F)F)C4)n2)c1 [Example 331]
4.1 | CNC[C@@H](O)COc1ccc(Cl)c(-c2nc(-c3c(C)c(Cl)nn3C)c(C)c(N3CC4(CC(C#N)C4)C3)n2)c1 [Example 332]
2.46 | CNC[C@@H](O)COc1ccc(Cl)c(-c2nc(-c3c(C)c(Br)nn3C)c(C)c(N3CC4(CC(C#N)C4)C3)n2)c1 [Example 333]
2.53 | CNC[C@@H](O)COc1ccc(Cl)c(-c2nc(-c3c(Cl)cnn3C)c(C)c(N3CC4=C(CN(C(=O)OC)CC4)C3)n2)c1 [Example 334]
2.28 | CNC[C@@H](O)COc1ccc(Cl)c(-c2nc(-c3c(Cl)cnn3C)c(C)c(N3CC4=C(CN(C(=O)OC)C4)C3)n2)c1 [Example 335]
3.03 | CNC[C@@H](O)COc1ccc(Cl)c(-c2nc(-c3c(Br)cnn3C)c(C)c(N3CC4=C(CN(C(=O)OC)C4)C3)n2)c1 [Example 336]
4.98 | CNC[C@@H](O)COc1ccc(Cl)c(-c2nc(-c3c(C)noc3C)c(C)c(N3CC4(CCCN(CC(F)F)C4)C3)n2)c1 [Example 337]
31.1 | CNC[C@@H](O)COc1ccc(Cl)c(-c2nc(-c3c(C)noc3C)c(C)c(N3CC4(CCN(C(=O)OC)CC4)C3)n2)c1Cl [Example 338]
2.54 | CNC[C@@H](O)COc1ccc(Cl)c(-c2nc(-c3c(Cl)cnn3C)c(C)c(N3Cc4cnc(OC)nc4C3)n2)c1 [Example 339]
2 | CNC[C@@H](O)COc1ccc(Cl)c(-c2nc(-c3c(Cl)cnn3C)c(C)c(N3Cc4cnc(N5CCC5)nc4C3)n2)c1 [Example 340]
2.7 | CNC[C@@H](O)COc1ccc(Cl)c(-c2nc(-c3c(Cl)cnn3C)c(C)c(N3Cc4nccnc4C3)n2)c1 [Example 341]
2.74 | CNC[C@@H](O)COc1ccc(Cl)c(-c2nc(-c3c(Cl)cnn3C)c(C)c(N3Cc4cnn(C)c4C3)n2)c1 [Example 342]

The compounds below were run on asymmetric di-methyl PABP1 in RKO cells (assay: RKO methylation assay: In Cell Western (ICW) for asymmetric di-methyl PABP1 (PABP1me2a)). Settings: Cellular-based (PABP1me2a) ICW (In Cell Western) assay, 48 hours.
Summary of the method: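 In-cell western on compound-exposed RKO cells (48 hours): asymmetric di-methyl PABP1 detected by antibody at 800 nm, DNA content by DRAQ5 at 700 nm. Percent inhibition from signal ratios against DMSO (minimum) and 20 μM reference compound (maximum) wells; IC50 curves fitted from triplicates.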

IC50 [nM] | SMILES
27.7 | CNC[C@@H](O)COc1ccc(Cl)c(-c2nc(-c3c(C)c(Br)nn3C)c(C)c(N3CC4(CN(CC(F)(F)F)C4)C3)n2)c1 [Example 305]

Same assay, conditions: Homo sapiens, RKO, 48 h, Cellular-based (PABP1me2a) ICW (In Cell Western) assay

IC50 [nM] | SMILES
244 | CNC[C@@H](O)COc1ccc(Cl)c(-c2nc(-c3c(C)c(Br)nn3C)c(C)c(N3CC4(CN(CCC#N)C4)C3)n2)c1 [Example 298]
17.6 | CNC[C@@H](O)COc1ccc(Cl)c(-c2nc(-c3c(Cl)cnn3C)c(C)c(N3Cc4cnc(N5CC(OC)C5)nc4C3)n2)c1 [Example 299]
125 | CNC[C@@H](O)COc1ccc(Cl)c(-c2nc(-c3c(C)noc3C)c(C)c(N3CC4(CCCN(CC(F)(F)F)C4)C3)n2)c1 [Example 301]
70.2 | CNC[C@@H](O)COc1ccc(Cl)c(-c2nc(-c3c(C)noc3C)c(C)c(N3CC4(CCCN(C(=O)OCC(F)F)C4)C3)n2)c1 [Example 302]
37.6 | CNC[C@@H](O)COc1ccc(Cl)c(-c2nc(-c3c(C)c(Br)nn3C)c(C)c(N3CC4(CC(OCC(F)F)C4)C3)n2)c1 [Example 303]
142 | CNC[C@@H](O)COc1ccc(Cl)c(-c2nc(-c3c(C)c(Br)nn3C)c(C)c(N3CC(CCl)(CNCC(F)(F)F)C3)n2)c1 [Example 304]
173 | CNC[C@@H](O)COc1ccc(Cl)c(-c2nc(-c3c(C)noc3C)c(C)c(N3CC4(CC(C#N)C4)C3)n2)c1 [Example 306]
45.4 | CCOc1ncc2c(n1)CN(c1nc(-c3cc(OC[C@H](O)CNC)ccc3Cl)nc(-c3c(Cl)cnn3C)c1C)C2 [Example 307]
1820 | Cc1noc(C)c1-c1nc(-c2cc(OC[C@H](O)CN(C)C=O)ccc2Cl)nc(N2Cc3cccnc3C2)c1C [Example 308]
40.9 | CNC[C@@H](O)COc1ccc(Cl)c(-c2nc(-c3c(C)noc3C)c(C)c(N3CC4(C3)CN([C@H](C)C(F)(F)F)C4)n2)c1 [Example 330]
32.9 | CNC[C@@H](O)COc1ccc(Cl)c(-c2nc(-c3c(C)noc3C)c(C)c(N3CC4(C3)CN([C@@H](C)C(F)(F)F)C4)n2)c1 [Example 331]
80.9 | CNC[C@@H](O)COc1ccc(Cl)c(-c2nc(-c3c(C)c(Cl)nn3C)c(C)c(N3CC4(CC(C#N)C4)C3)n2)c1 [Example 332]
64.4 | CNC[C@@H](O)COc1ccc(Cl)c(-c2nc(-c3c(C)c(Br)nn3C)c(C)c(N3CC4(CC(C#N)C4)C3)n2)c1 [Example 333]
43.4 | CNC[C@@H](O)COc1ccc(Cl)c(-c2nc(-c3c(Cl)cnn3C)c(C)c(N3CC4=C(CN(C(=O)OC)CC4)C3)n2)c1 [Example 334]
30.5 | CNC[C@@H](O)COc1ccc(Cl)c(-c2nc(-c3c(Cl)cnn3C)c(C)c(N3CC4=C(CN(C(=O)OC)C4)C3)n2)c1 [Example 335]
32.1 | CNC[C@@H](O)COc1ccc(Cl)c(-c2nc(-c3c(Br)cnn3C)c(C)c(N3CC4=C(CN(C(=O)OC)C4)C3)n2)c1 [Example 336]
60 | CNC[C@@H](O)COc1ccc(Cl)c(-c2nc(-c3c(C)noc3C)c(C)c(N3CC4(CCCN(CC(F)F)C4)C3)n2)c1 [Example 337]
1820 | CNC[C@@H](O)COc1ccc(Cl)c(-c2nc(-c3c(C)noc3C)c(C)c(N3CC4(CCN(C(=O)OC)CC4)C3)n2)c1Cl [Example 338]
65.4 | CNC[C@@H](O)COc1ccc(Cl)c(-c2nc(-c3c(Cl)cnn3C)c(C)c(N3Cc4cnc(OC)nc4C3)n2)c1 [Example 339]
17.5 | CNC[C@@H](O)COc1ccc(Cl)c(-c2nc(-c3c(Cl)cnn3C)c(C)c(N3Cc4cnc(N5CCC5)nc4C3)n2)c1 [Example 340]
184 | CNC[C@@H](O)COc1ccc(Cl)c(-c2nc(-c3c(Cl)cnn3C)c(C)c(N3Cc4nccnc4C3)n2)c1 [Example 341]
123 | CNC[C@@H](O)COc1ccc(Cl)c(-c2nc(-c3c(Cl)cnn3C)c(C)c(N3Cc4cnn(C)c4C3)n2)c1 [Example 342]
